For test [1], the target named is 3',5'-cyclic-AMP phosphodiesterase 4B (Homo sapiens, UniProt Q07343). The experiment in a line: Inhibition of human PDE4B2 catalytic domain and UCR2 (92 to 521) expressed in Escherichia coli BL21 using [3H]-cAMP/[3H]-cGMP after 15 mins by liquid scintillation counting.
For test [2], the target named is cGMP-specific 3',5'-cyclic phosphodiesterase (Homo sapiens, UniProt O76074). The experiment in a line: Inhibition of human PDE5A1 catalytic domain (535 to 860) expressed in Escherichia coli BL21 using [3H]-cAMP/[3H]-cGMP after 15 mins by liquid scintillation counting.
In test [3] the target is 3',5'-cyclic-AMP phosphodiesterase 4D (Homo sapiens, UniProt Q08499). The experiment in a line: Inhibition of human PDE4D2 catalytic domain (86 to 413) expressed in Escherichia coli BL21 using [3H]-cAMP/[3H]-cGMP after 15 mins by liquid scintillation counting.
Sequence of 3',5'-cyclic-AMP phosphodiesterase 4D (Q08499 whole entry, the tested form may be a part): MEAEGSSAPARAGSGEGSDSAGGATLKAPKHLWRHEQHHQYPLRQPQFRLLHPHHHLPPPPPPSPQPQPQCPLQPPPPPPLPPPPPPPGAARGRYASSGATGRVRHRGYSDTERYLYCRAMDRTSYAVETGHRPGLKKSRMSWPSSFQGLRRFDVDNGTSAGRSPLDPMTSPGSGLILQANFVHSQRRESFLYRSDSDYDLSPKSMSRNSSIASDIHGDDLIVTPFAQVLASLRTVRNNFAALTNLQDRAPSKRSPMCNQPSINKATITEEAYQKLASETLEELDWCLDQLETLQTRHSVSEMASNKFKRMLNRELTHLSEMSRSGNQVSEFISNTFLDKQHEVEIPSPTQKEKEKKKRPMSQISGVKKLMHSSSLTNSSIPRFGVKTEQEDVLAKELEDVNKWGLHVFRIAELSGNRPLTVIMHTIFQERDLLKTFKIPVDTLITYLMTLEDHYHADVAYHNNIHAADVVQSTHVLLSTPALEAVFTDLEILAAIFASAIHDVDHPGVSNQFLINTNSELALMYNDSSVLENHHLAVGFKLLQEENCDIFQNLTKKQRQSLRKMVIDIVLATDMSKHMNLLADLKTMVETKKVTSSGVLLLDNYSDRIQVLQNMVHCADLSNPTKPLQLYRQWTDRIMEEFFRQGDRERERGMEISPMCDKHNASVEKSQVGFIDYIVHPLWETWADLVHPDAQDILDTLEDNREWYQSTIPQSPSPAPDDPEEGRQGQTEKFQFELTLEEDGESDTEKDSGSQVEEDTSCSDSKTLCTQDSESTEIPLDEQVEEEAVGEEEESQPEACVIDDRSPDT
In test [4] the target is High affinity cGMP-specific 3',5'-cyclic phosphodiesterase 9A (Homo sapiens, UniProt O76083). The experiment in a line: Inhibition of human PDE9A2 catalytic domain (181 to 506) expressed in Escherichia coli BL21 using [3H]-cAMP/[3H]-cGMP after 15 mins by liquid scintillation counting.
Sequence of High affinity cGMP-specific 3',5'-cyclic phosphodiesterase 9A (O76083 whole entry, the tested form may be a part): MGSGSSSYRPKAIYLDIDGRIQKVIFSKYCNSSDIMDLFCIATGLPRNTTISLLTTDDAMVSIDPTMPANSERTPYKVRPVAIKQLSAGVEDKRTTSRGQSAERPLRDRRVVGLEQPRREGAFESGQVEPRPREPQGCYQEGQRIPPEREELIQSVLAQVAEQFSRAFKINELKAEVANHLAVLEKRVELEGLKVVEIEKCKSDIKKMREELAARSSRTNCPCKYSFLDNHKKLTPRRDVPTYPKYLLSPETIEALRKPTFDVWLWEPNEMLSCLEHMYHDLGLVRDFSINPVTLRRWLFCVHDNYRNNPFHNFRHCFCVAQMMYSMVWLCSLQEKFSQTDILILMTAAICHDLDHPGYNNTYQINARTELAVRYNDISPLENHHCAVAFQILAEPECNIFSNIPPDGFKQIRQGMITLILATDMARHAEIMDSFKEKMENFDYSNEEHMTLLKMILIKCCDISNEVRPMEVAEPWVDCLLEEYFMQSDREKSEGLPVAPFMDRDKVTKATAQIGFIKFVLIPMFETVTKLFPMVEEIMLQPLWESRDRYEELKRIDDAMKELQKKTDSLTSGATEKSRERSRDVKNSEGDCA

Sequence of 3',5'-cyclic-AMP phosphodiesterase 4B (Q07343 whole entry, the tested form may be a part): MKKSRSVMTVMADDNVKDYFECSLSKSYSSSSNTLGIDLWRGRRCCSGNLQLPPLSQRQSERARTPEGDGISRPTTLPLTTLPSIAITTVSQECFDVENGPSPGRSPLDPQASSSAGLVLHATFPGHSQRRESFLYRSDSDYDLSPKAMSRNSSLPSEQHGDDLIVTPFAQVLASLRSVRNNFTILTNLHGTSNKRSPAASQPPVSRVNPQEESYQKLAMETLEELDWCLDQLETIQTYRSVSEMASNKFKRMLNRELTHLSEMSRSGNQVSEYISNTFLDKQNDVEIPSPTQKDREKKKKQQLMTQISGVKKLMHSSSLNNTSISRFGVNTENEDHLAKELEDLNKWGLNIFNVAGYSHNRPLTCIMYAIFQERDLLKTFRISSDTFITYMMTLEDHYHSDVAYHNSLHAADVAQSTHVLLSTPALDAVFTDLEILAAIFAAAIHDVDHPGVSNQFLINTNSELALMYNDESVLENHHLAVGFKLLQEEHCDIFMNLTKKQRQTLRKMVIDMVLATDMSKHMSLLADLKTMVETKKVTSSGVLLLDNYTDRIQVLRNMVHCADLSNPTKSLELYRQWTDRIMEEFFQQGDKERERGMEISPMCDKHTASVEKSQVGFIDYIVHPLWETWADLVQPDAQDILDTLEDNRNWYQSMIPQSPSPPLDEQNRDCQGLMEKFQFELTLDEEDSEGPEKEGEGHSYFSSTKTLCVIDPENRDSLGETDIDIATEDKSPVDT

Consider `CC(C)=CCc1c(O)cc(-c2cc3ccc(O)cc3o2)cc1O` [MORACIN C], for which the IC50 in test [1] is 18.1 µM; in test [2] it was greater than 50 µM; in test [3] it was 26 µM; in test [4] it was greater than 100 µM.
On to `Oc1cc(O)cc(-c2cc3ccc(O)cc3o2)c1` [MORACIN M], for which the results for the IC50 in test [1], in test [2] and in test [4] were 4.5 µM, greater than 40 µM and greater than 100 µM, respectively.

A word on the IC50: it is the midpoint of a concentration-inhibition curve.

The record behind these values is ChEMBL document CHEMBL2016435 (Bioorg Med Chem Lett, 2012).
